Results: patent publication US11192863B2, “Antiviral compounds and methods” (Biotron Limited, priority 2003, dated 2021)
Read-outs that look alike come from different tables or passages of the source.

Columns and labels:
Vpu protein = Vpu protein (Human immunodeficiency virus type 1 group M subtype B, UniProt P05919); details: halo of growth score between zero and six; XL1-blue E. coli with pPL-Vpu, no adenine, 37° C.
229E-CoV E-protein = 229E-CoV E-protein (Human coronavirus 229E, UniProt P19741); test: Bacterial bio-assay for 229E-CoV E-protein; details: halo of growth score; E. coli expressing E protein at 37° C.
MHV (strain MHV-A59) = details: L929 cells
SARS-CoV E protein = SARS-CoV E protein (Severe acute respiratory syndrome coronavirus, UniProt P59637); format: cell-based

SMILES | Vpu Inhibition (score/# of times tested) (Vpu protein) | 229E E protein Inhibition (score) (229E-CoV E-protein) | Percent reduction in Plaque number/# experiments (MHV (strain MHV-A59); 1 uM) | Percent reduction in Plaque number/# experiments (MHV (strain MHV-A59); 10 uM) | SARS E protein Inhibition (score/# of times tested) (SARS-CoV E protein) | Percent reduction in Plaque number/# experiments (MHV (strain MHV-A59); 20 uM) | Toxic (noted in place of plaque reduction) (MHV (strain MHV-A59); 20 uM)
N=C(N)NC(=O)/C=C/c1ccccc1-c1ccccc1 [2-phenylcinnamoylguanidine] | 2.1/2 score | 3.0 | 42/1% | 100/1% | – | – | –
COc1cc(/C=C/C(=O)NC(=N)N)cc(OC)c1OC [3,4,5-trimethoxycinnamoylguanidine] | – | 0.1 | 21/1% | 84/1% | 2.25/1 score | 84/1% | –
N=C(N)NC(=O)/C=C/c1ccc(F)c(F)c1 [3,4-difluorocinnamoylguanidine] | 2.06/2 score | 0.4 | 50/1% | 91/2% | – | – | Toxic
N=C(N)NC(=O)/C=C/c1ccc2ccccc2c1 [3-(2-napthyl)acryloylguanidine] | 1.56/2 score | 3.0 | 40/1% | 93/1% | 3.88/1 score | 93/1% | –
CCOc1cccc(/C=C/C(=O)NC(=N)N)c1 [3-ethoxycinnamoylguanidine] | 1.9/2 score | 0.3 | 58/1% | 89/2% | – | 100/1% | –
N=C(N)NC(=O)/C=C/c1cccc(F)c1 [3-fluorocinnamoylguanidine] | 1.9/2 score | 0.5 | 31/1% | 93/2% | 1.50/1 score | 100/1% | –
CC(C)c1cccc(/C=C/C(=O)NC(=N)N)c1.Cl [3-isopropylcinnamoylguanidine hydrochloride] | 2.6/2 score | 4.0 | 32/1% | 99/2% | – | – | –
N=C(N)NC(=O)/C=C/c1cccc(-c2ccccc2)c1 [3-phenylcinnamoylguanidine] | 2.54/3 score | 2.9 | 64/3% | 86/2% | 3.13/1 score | – | Toxic
CC(C)(C)c1cccc(/C=C/C(=O)NC(=N)N)c1 [3-t-butylcinnamoylguanidine] | 2.06/2 score | 3.9 | 49/2% | 94/3% | 2.00/1 score | – | Toxic
N=C(N)NC(=O)/C=C/c1ccc(C(F)(F)F)cc1 [4-(trifluoromethyl)cinnamoylguanidine] | 2.2/2 score | 2.3 | 46/3% | 95/3% | 2.75/1 score | 97/3% | –
CC(C)(C)c1ccc(/C=C/C(=O)NC(=N)N)cc1 [4-t-butylcinnamoylguanidine] | 0.19/2 score | 4.0 | – | – | 4.00/1 score | – | –
NC(N)=NC(=O)c1ccc2cc(C(=O)N=C(N)N)ccc2c1 [N,N′-Bis(amidino)napthalene-2,6-dicarboxamide] | – | 0.3 | 0/1% | 16/1% | 0.25/2 score | 19/1% | –
N=C(N)NC(=O)COc1ccc(Cl)cc1 [[(4-Chlorophenoxy-acetyl]guanidine, (4-Chlorophenoxy-acetyl)guanidine] | 0.56/2 score | – | 0/1% | 16/1% | 0.19/2 score | 19/1% | –
N=C(N)NC(=O)/C=C/c1ccoc1 [trans-3-Furanacryoylguanidine, trans-3-furanacryoylguanidine] | 0.38/2 score | – | 48/1% | 65/1% | 0.88/2 score | 70/1% | –
